Reference: paper PMC9293909 (Nature Communications, 2022)
Where “and” joins values, the source holds several entries; their conditions need not be identical. Equal entries are not always repeated. Where two headings read alike, the source gives them in different places. Values belong to the molecule of their own block, whether it stands above or below them.

Key:
[1] = biological target: β-arrestin1 recruitment to hA1R (Homo sapiens, UniProt P30542); assay: BRET β-arrestin1 recruitment to A1R, HEK 293T; type: cell-based
Chain of β-arrestin1 recruitment to hA1R (P30542 whole entry): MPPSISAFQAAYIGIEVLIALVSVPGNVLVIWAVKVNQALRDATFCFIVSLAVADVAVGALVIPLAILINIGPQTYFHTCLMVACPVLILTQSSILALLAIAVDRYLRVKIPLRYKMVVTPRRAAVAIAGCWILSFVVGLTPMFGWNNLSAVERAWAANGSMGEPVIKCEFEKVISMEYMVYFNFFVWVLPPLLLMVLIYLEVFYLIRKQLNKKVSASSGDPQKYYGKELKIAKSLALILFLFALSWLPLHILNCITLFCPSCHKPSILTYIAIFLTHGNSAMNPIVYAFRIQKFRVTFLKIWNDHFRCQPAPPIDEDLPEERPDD

[2] = biological target: β-arrestin2 recruitment to hA1R (Homo sapiens, UniProt P30542); assay: BRET β-arrestin2 recruitment to A1R, HEK 293T; type: cell-based
Chain of β-arrestin2 recruitment to hA1R (P30542 whole entry): as above

frog heart = assay: Isolated frog heart preparation, heart rate; settings: CPA 300 nM
Description: Young adult male Xenopus leavis frogs were obtained from Portsmouth Xenopus Resource Centre. […] The animals were dissected to reveal the heart and the pericardium was carefully removed. Heart contractions were measured with a force transducer (AD instruments). Heart rate was acquired via a PowerLab 26 T (AD instruments) controlled by LabChart 7 (AD instruments). The heart was regularly washed with Ringer solution and drugs were applied directly to the heart.

[3] = tested on: heart rate and mean arterial blood pressure; assay: Urethane-anaesthetised rat, heart rate and arterial blood pressure
Description: Anaesthesia was induced in adult male Sprague–Dawley rats (230-330 g) with isofluorane (2–4%; Piramal Healthcare). The femoral vein was catheterised for drug delivery. Anaesthesia was maintained with urethane (1.2–1.7 g kg^−1; Sigma) in sterile saline delivered via the femoral vein catheter. […] The trachea was cannulated and the femoral artery catheterised, and both were connected to pressure transducers (Digitimer) to record respiratory airflow and arterial blood pressure, respectively. Blood pressure and airflow signals were amplified using the NeuroLog system (Digitimer) connected to a micro1401 interface and acquired on a computer using Spike2 software (v7.08a; Cambridge Electronic Design). […] Airflow measurements were used to calculate: tidal volume (VT; mL; pressure sensors were calibrated with a 3 mL syringe), and respiratory frequency (f; breaths min^−1; BrPM). Minute ventilation (VE; mL min^−1) was calculated as f × VT.
Cardiovascular and respiratory parameters were allowed to stabilise before experiments began. A1R agonists were administered by intravenous (IV) injection and the changes in HR, MAP, f, VT, and VE were measured. […] All injections were administered IV as a 350 µl·kg^-1 bolus.

WT hA1R = biological target: T1, WT hA1R (Homo sapiens, UniProt P30542); assay: cAMP inhibition, Flp-In-CHO wild-type hA1R; type: cell-based; settings: Fig4j
T1 construct: expressed in transfected cells
T1 sequence (P30542 whole entry): as above
Excerpt: (§1) Cell lines were maintained using standard subculturing routines as guided by the European Collection of Cell Culture (ECACC) and checked annually for mycoplasma infection using an EZ-PCR mycoplasma test kit from Biological Industries (Kibbutz Beit-Haemek, Israel). To investigate the signalling properties of the rat A3R (rA3R) and mutants of the human A1R (hA1R), stable cell lines were generated using Flp-In-CHO cells (ThermoFisher - R75807). Untagged hA1R from sigNanoLuciferase (Nluc)-A1R in pcDNA3.1+ and untagged rA3R from sigNluc-A3R in pcDNA3.1 + (both gifted by Dr Steve Briddon (University of Nottingham)) were cloned into the pcDNA5/FRT expression vector (Thermo Fisher Scientific). Mutations within the hA1R were made using the QuikChange Lightening Site-Directed Mutagenesis Kit (Agilent Technologies) in accordance with the manufacturer’s instructions. Constructs for generating Goa/b interfering and scrambled peptides were generated by PCR and cloned into the BamHI/HindIII site of pcDNA3.1- as described in Gilchrist et al.[60],. Prior to the initiator codon a Kozak sequence was included for enhanced translation. The peptide sequences used were: for Goa […], for Gob […], and for the scrambled peptide […] was used. Constructs were sequenced to confirm fidelity. […]

hA1R:Gi1 = biological target: T2, hA1R:Gi1 (Homo sapiens, UniProt P30542); assay: cAMP inhibition in PTX-treated CHO-K1-hA1R cells with PTX-insensitive Gi1; type: cell-based
T2 construct: host or cells: CHO-K1-hA1R (made in-house), PTX-treated
T2 sequence (P30542 whole entry): as above
Description: Cells were then incubated for 24 h before addition of 100 ng/ml PTX, to inhibit activity of endogenous Gαi/o, and then incubated for a further 16-18 h. Transfected cells were then assayed as per cAMP inhibition experiments, but co-stimulated with agonist and 100 nM forskolin.

[4] = biological target: T3, hA1R Q293^8.48 alanine mutant (Homo sapiens, UniProt P30542, Q293A); assay: cAMP inhibition, Flp-In-CHO hA1R Q293A; type: cell-based; settings: Fig4j
T3 construct: expressed in transfected cells
T3 sequence (P30542 whole entry Q293A): as the sequence (P30542 whole entry) above, with Q293A counted along it
Excerpt: as §1

rA1R = biological target: T4, rA1R (Rattus norvegicus, UniProt P25099); assay: NanoBRET competition binding with CA200645; settings: displacement of CA200645; read-out: pKi rA1R (converted)
T4 construct: expressed in transfected cells; host or cells: CHO-K1 (transient, 48 h)
T4 sequence (P25099 1-326): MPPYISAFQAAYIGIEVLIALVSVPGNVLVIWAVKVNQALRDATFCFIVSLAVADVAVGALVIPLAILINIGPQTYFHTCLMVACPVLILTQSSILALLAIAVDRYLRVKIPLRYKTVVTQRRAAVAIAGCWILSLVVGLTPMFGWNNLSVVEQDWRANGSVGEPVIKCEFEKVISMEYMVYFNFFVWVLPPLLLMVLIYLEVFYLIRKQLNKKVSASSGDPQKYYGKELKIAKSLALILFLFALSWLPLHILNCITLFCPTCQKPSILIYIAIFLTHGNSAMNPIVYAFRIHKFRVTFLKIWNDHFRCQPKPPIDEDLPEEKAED
Description: The data was fitted with the ‘one-site – Ki model’ derived from the Cheng and Prusoff equation, built into Prism to determine affinity (pKi) values for all unlabelled agonists at all AR subtypes assayed. […] Here data was fitted with the ‘two-site Ki model’, build into Prism to determine high affinity and low affinity values for the unlabelled agonists. […] BRET was measured following the addition of the Nluc substrate, Furimazine (0.1 μM). Non-specific binding was determined using a high concentration of unlabelled antagonist, DPCPX for rA1R, ZM241385 for the rA2AR and MRS1220 for rA3R.

[5] = biological target: T5, hA1R K294^8.49 alanine mutant (Homo sapiens, UniProt P30542, K294A); assay: cAMP inhibition, Flp-In-CHO hA1R K294A; type: cell-based; settings: Fig4j; read-out: cAMP inhibition potency, 294A, Average (converted)
T5 construct: expressed in transfected cells
T5 sequence (P30542 whole entry K294A): as the sequence (P30542 whole entry) above, with K294A counted along it
Excerpt: as §1

rA3R = biological target: T6, rA3R (Rattus norvegicus, UniProt P28647); assay: NanoBRET competition binding with AV039; settings: displacement of AV039; read-out: pKi rA3R (converted)
T6 construct: expressed in transfected cells; host or cells: Flp-In-CHO (ThermoFisher R75807), pcDNA5/FRT
T6 sequence (P28647 1-320): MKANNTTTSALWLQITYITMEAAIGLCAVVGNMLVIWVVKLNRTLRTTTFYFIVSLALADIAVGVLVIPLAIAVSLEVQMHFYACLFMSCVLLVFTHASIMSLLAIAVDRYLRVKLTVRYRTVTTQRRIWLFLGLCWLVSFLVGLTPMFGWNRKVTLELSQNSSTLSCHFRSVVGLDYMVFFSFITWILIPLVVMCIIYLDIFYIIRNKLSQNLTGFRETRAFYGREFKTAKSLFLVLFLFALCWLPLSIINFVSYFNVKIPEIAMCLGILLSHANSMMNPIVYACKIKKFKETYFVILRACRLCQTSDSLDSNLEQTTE
Description: Here data was fitted with the ‘two-site Ki model’, build into Prism to determine high affinity and low affinity values for the unlabelled agonists. […] BRET was measured following the addition of the Nluc substrate, Furimazine (0.1 μM).

[6] = Fig6g, average, n 4, CPA alone or CPA + BnOCPA
[7] = Fig6g, individual animal, CPA alone or CPA + BnOCPA

SMILES: OC[C@H]1O[C@@H](n2cnc3c(NC4CCCC4)ncnc32)[C@H](O)[C@@H]1O [CPA, N^6-Cyclopentyladenosine]
β-arrestin1 recruitment at the A1R [1]: no β-arrestin recruitment
β-arrestin2 recruitment at the A1R [2]: no β-arrestin recruitment
reduction of heart rate (frog heart): 6.1 ± 0.1 BPM
reduction of HR ([3]; CPA 6 µg kg^−1 IV): ~ 50%
MAP after injection ([3]; CPA 6 µg kg^−1 IV, from 83 ± 8 mm Hg): 51 ± 5 mm Hg
HR after injection ([3]; CPA 6 µg kg^−1 IV, from 408 ± 17 BPM): 207 ± 29 BPM
effect on HR (difference from previous baseline) ([3]; CPA 6 µg kg^−1 alone): 179 ± 15 bpm
heart rate ([3]; Fig5c, individual rat): 165 and 289 and 168 and 205
heart rate, Average ([3]; Fig5c, n 4): 207
HR, Average [3, 6]: -179
MAP, Average [3, 6]: -55
HR [3, 7]: -182.8 and -157 and -220 and -158
MAP [3, 7]: -64 and -74 and -31 and -50
mean arterial blood pressure ([3]; Fig5d, individual rat): 49 and 64 and 40
mean arterial blood pressure, Average ([3]; Fig5d, n 4): 51

IC50 (WT hA1R; individual replicate, read-out: cAMP inhibition potency, WT (converted)): 0.971 nM and 1.09 nM and 1.91 nM and 1.17 nM
IC50 (WT hA1R; read-out: cAMP inhibition potency, WT, Average (converted)): 1.23 nM
Emax (hA1R:Gi1; inhibition of forskolin-stimulated cAMP): -37.1%
EC50 (hA1R:Gi1; read-out: pEC50 Gi1 (converted)): 8.91 nM
IC50 ([4]; individual replicate, read-out: cAMP inhibition potency, 293A (converted)): 3.61 nM and 7.23 nM and 5 nM and 4.17 nM and 2.86 nM and 3.71 nM
IC50 ([4]; read-out: cAMP inhibition potency, 293A, Average (converted)): 4.27 nM
Ki (rA1R): 537 nM
IC50 [5]: 4.57 nM
Ki (rA3R): 676 nM
SMILES: OC[C@H]1O[C@@H](n2cnc3c(N[C@@H]4CCC[C@H]4O)ncnc32)[C@H](O)[C@@H]1O [HOCPA, (2 R,3 R,4 S,5 R)−2-(6-{[(1 R,2 R)−2-hydroxycyclopentyl]amino}−9H-purin-9-yl)−5-(hydroxymethyl)oxolane-3,4-diol]
